The text below walks through data of PMC9807592, “New thioxothiazolidinyl-acetamides derivatives as potent urease inhibitors: design, synthesis, in vitro inhibition, and molecular dynamic simulation” (Scientific Reports, 2023).

In one data set the test system is C. albicans ATCC 10261. As to the kind of experiment: Antimicrobial activity, broth microdilution (CLSI). The note with it: Candida albicans, ATCC10261. It is filed as cell-based. The procedure:
The antimicrobial activity of designed compounds was investigated using broth microdilution.
Briefly, twofold serial dilutions of the compounds were prepared in Mueller–Hinton Broth (MHB, HiMedia) for bacterial strains and RPMI-1640 (Sigma-Aldrich) for yeast strain (Ranging 1–512 µg/ml). Then, 100 μL of each dilution was transferred into the well of a microtiter plate and inoculated with 100 μL of cell suspension with a final density of 1–5 × 10^3 CFU/ml for yeasts and 1–1.5 × 10^6 cells/ml for bacteria. Plates were incubated at proper temperature overnight, and the minimum inhibitory concentration (MIC) of compounds was determined as the lowest concentration that prevented visible growth of tested microorganisms compared with the growth in the control wells (wells without tested compounds). Moreover, the minimum bactericidal/fungicidal concentration (MBC/MFC) of compounds was determined by transferring the 10 µl of clear wells into the agar media. Standard antibacterial and antifungal agents (Ciprofloxacin and Fluconazole) were evaluated. All experiments were performed in duplicate[30],[31].

A short description of data set [1]: In vitro cytotoxic evaluation (MTT assay). It is filed as cell-based. The note with it: human, MOLT-4 cells. On the procedure:
MOLT-4 (human acute lymphoblastic leukemia) cells were cultures in RPMI-1640 medium supplemented with 10% heat-inactivated fetal bovine serum. Cell viability was measured by the MTT assay. MOLT-4 cells were seeded into 96-well micro-culture plates. After 24 h, the culture medium was replaced with a medium containing different concentrations of newly synthesized derivatives. Control wells were supplemented with the same volume of growth medium not containing any drugs. Cells were then incubated at 37 °C for 72 h. At the end of the exposure time, the medium was removed and MTT solution of 0.5 mg/ml was added to each well. The plates were incubated at 37 °C for 4 h, after which DMSO was added to each well to solubilize the formed formazan crystals, and the absorbance of each well was read with a microplate reader at 570 nm.
In general terms: Tetrazolium assays rely on reduction of a dye to a coloured formazan, in cell work by metabolically active cells.

The next data set has as its system S. aureus ATCC 25923. Kind of data set: Antimicrobial activity, broth microdilution (CLSI). In kind it is cell-based. The note with it: Staphylococcus aureus, ATCC25923. The procedure:
(§1) Then, 100 μL of each dilution was transferred into the well of a microtiter plate and inoculated with 100 μL of cell suspension with a final density of 1–5 × 10^3 CFU/ml for yeasts and 1–1.5 × 10^6 cells/ml for bacteria. Plates were incubated at proper temperature overnight, and the minimum inhibitory concentration (MIC) of compounds was determined as the lowest concentration that prevented visible growth of tested microorganisms compared with the growth in the control wells (wells without tested compounds). […] All experiments were performed in duplicate[30],[31].
For orientation: Dilution methods test growth across graded concentrations, often in twofold steps.

The next data set relates to E. coli ATCC 25922. As to the kind of experiment: Antimicrobial activity, broth microdilution (CLSI). In kind it is cell-based. The note with it: Escherichia coli, ATCC25922, read-out: MIC. On the procedure:
as §1

Data set [2] has as its system clinical isolate of P. vulgaris. Kind of data set: Antimicrobial activity, broth microdilution (CLSI). As to conditions: Proteus vulgaris. In kind it is cell-based. The procedure:
as §1

For another data set, the target named is urease (Canavalia ensiformis, UniProt P07374). Kind of data set: biochemical. It is filed as biochemical. On the procedure:
The assay was performed exactly according to our previous report. Briefly, 850 μL of urea and 15 μL urease (0.135 units dissolved in PBS, pH 7.4) were added to 100 μL of the synthesized derivatives at different concentrations. After 30 min, to 100 μL of the incubated solution, 500 μL solution I (5.0 g phenol and 25.0 mg sodium nitroprusside in 500 mL water) was added followed by the addition of 500 μL of solution II (2.5 g sodium hydroxide, 4.2 mL sodium hypochlorite, and 5% chlorine in 500 mL water) which was further incubated at 37 °C for 30 min. The absorbance was determined by measuring indophenols at 625 nm. Thiourea was used as the standard inhibitor for urease. The IC50 values for all synthesized compounds were calculated using GraphPad Prism software (GraphPad Software, Inc., San Diego, CA)[20].

Where [3] appears, read: mean ± SEM, at least three experiments, read-out: IC50 (μM), urease inhibitory activity.

SMILES strings stand for the structures. ≈ marks a conversion by molar mass, not a printed value. Like-named read-outs stand apart in the source and are kept apart here.

Sequence of urease (P07374 whole entry, looked up): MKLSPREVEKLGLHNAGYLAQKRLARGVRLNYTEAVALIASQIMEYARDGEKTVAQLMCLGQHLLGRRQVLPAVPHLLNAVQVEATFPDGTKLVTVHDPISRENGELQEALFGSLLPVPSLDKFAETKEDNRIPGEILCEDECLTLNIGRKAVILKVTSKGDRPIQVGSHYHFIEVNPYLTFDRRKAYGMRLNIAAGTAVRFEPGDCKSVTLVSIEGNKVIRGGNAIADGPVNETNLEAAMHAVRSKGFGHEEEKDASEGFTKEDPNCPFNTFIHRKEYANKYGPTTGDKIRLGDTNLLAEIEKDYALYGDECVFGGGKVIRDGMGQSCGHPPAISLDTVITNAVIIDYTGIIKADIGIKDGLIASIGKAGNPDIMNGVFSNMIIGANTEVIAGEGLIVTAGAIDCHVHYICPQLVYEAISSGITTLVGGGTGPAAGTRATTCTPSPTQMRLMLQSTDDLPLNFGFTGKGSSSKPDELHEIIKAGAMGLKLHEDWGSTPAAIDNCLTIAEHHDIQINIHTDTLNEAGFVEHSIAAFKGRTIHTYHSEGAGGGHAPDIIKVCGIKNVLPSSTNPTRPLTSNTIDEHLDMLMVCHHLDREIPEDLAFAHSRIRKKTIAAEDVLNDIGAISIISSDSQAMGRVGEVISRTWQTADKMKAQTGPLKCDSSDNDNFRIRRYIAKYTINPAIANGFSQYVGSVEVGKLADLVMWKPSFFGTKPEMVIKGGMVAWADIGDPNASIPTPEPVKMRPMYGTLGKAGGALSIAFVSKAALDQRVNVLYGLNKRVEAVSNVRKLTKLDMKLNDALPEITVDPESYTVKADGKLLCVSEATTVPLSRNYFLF

`Cc1ccc(CNC(=O)CC2SC(=S)N(Cc3ccccc3)C2=O)cc1` (centres unmarked) [Compound 6b, 2-(3-benzyl-4-oxo-2-thioxothiazolidin-5-yl)-N-(4-methylbenzyl)acetamide] showed a melting point of 167 to 169 °C. In the data set with C. albicans ATCC 10261, this compound had an MIC greater than 512 µg/mL. In data set [1], this compound came in with a viability at 72 h, 100 µM of 91.2 ± 4.2%. The compound further registered an MIC against S. aureus ATCC 25923 greater than 512 µg/mL. In addition, in the data set with E. coli ATCC 25922, the minimum inhibitory concentration (MIC) is greater than 512 µg/mL. For the same compound, in data set [2], the MIC is greater than 512 µg/mL. At urease, the IC50 amounted to 4.02 ± 1.12 µM.

On to `NC(=O)NO` [Hydroxyurea, reference compound], for which the IC50 at urease (mean ± SEM, at least three experiments, listed as hydroxyurea, read-out: IC50 (μM), urease inhibitory activity) amounted to 100 µM; on urease (setting [3]), 100 ± 2.5 µM.

Turning to `Cc1ccc(CNC(=O)CC2SC(=S)N(CC(C)C)C2=O)cc1` (centres unmarked) [Compound 6m, 2-(3-isobutyl-4-oxo-2-thioxothiazolidin-5-yl)-N-(4-methylbenzyl)acetamide], the melting point is 173 to 175 °C. The MIC in the data set with C. albicans ATCC 10261 was greater than 512 µg/mL. In addition, the viability at 72 h, 100 µM in data set [1] worked out at 97.7 ± 2.9%. This compound also came in with an MIC with S. aureus ATCC 25923 greater than 512 µg/mL. Also, in the data set with E. coli ATCC 25922, the minimal inhibitory concentration (MIC) was greater than 512 µg/mL. Moreover, the MIC in data set [2] is greater than 512 µg/mL. At urease, this compound gave an IC50 of 3.09 ± 1.08 µM.

On to `O=C(CC1SC(=S)N(Cc2ccccc2)C1=O)NCc1ccc(F)cc1` (centres unmarked) [Compound 6c, 2-(3-benzyl-4-oxo-2-thioxothiazolidin-5-yl)-N-(4-fluorobenzyl)acetamide], for which the melting point lay in the range of 169 to 171 °C. This compound gave an MIC in the data set with C. albicans ATCC 10261 greater than 512 µg/mL. This compound also showed a viability at 72 h, 100 µM in data set [1] of 92.7 ± 3.6%. The same compound came in with an MIC in the data set on S. aureus ATCC 25923 greater than 512 µg/mL. For the same compound, the MIC in the data set with E. coli ATCC 25922 was greater than 512 µg/mL. The MIC in data set [2] was greater than 512 µg/mL. The compound further returned an IC50 against urease of 2.15 ± 0.18 µM.

`CCCCN1C(=O)C(CC(=O)NCC(C)C)SC1=S` (centres unmarked) [Compound 6k, 2-(3-butyl-4-oxo-2-thioxothiazolidin-5-yl)-N-isobutylacetamide] showed a melting point of 170 to 172 °C. In the data set on C. albicans ATCC 10261, this compound showed an MIC greater than 512 µg/mL. The viability at 72 h, 100 µM in data set [1] is 98.5 ± 1.4%. Besides, in the data set on S. aureus ATCC 25923, the minimum inhibitory concentration (MIC) is greater than 512 µg/mL. In addition, the MIC in the data set with E. coli ATCC 25922 is greater than 512 µg/mL. Besides, in data set [2], the MIC is greater than 512 µg/mL. On urease, this compound had an IC50 of 1.91 ± 0.57 µM.

Regarding `CC(C)CN1C(=O)C(CC(=O)NCc2ccccc2)SC1=S` (centres unmarked) [Compound 6l, N-benzyl-2-(3-isobutyl-4-oxo-2-thioxothiazolidin-5-yl)acetamide], the melting point was 169 to 171 °C. Further, the MIC with C. albicans ATCC 10261 was greater than 512 µg/mL. For the same compound, the viability at 72 h, 100 µM in data set [1] is 93.6 ± 4.5%. In the data set with S. aureus ATCC 25923, this compound displayed a minimum inhibitory concentration (MIC) greater than 512 µg/mL. Moreover, the MIC in the data set on E. coli ATCC 25922 was greater than 512 µg/mL. Besides, the MIC in data set [2] is greater than 512 µg/mL. The compound also returned an IC50 at urease of 4.38 ± 0.61 µM.

`O=C(CC1SC(=S)N(Cc2ccccc2)C1=O)NCc1ccccc1` (centres unmarked) [Compound 6a, N-benzyl-2-(3-benzyl-4-oxo-2-thioxothiazolidin-5-yl)acetamide] registered a melting point of 168 to 170 °C. Also, in the data set with C. albicans ATCC 10261, the MIC is greater than 512 µg/mL. For the same compound, the viability at 72 h, 100 µM in data set [1] is 95.5 ± 2.7%. Also, the MIC with S. aureus ATCC 25923 is greater than 512 µg/mL. The MIC in the data set with E. coli ATCC 25922 was greater than 512 µg/mL. In addition, the MIC in data set [2] is greater than 512 µg/mL. The IC50 against urease was 2.22 ± 0.36 µM.

In the case of `COc1cccc2c1C(=O)c1c(O)c3c(c(O)c1C2=O)C[C@@](O)(C(=O)CO)C[C@@H]3O[C@H]1C[C@H](N)[C@H](O)[C@H](C)O1` [Doxorubicin, reference compound], the concentration for half-maximal inhibition (IC50) at 72 h in data set [1] (read-out: IC50 (µM), cytotoxicity) worked out at 12.7 ± 2.4 µM.

Consider `OC(Cn1cncn1)(Cn1cncn1)c1ccc(F)cc1F` [Fluconazole, reference compound], for which, in the data set on C. albicans ATCC 10261, it took 4 µg/mL (≈ 13.1 µM) to inhibit growth (MIC).

With `NC(N)=S` [Thiourea, reference compound], the IC50 at urease (setting [3]) worked out at 23.6 ± 0.84 µM.

`CCCCN1C(=O)C(CC(=O)NCc2ccc(C)cc2)SC1=S` (centres unmarked) [Compound 6j, 2-(3-butyl-4-oxo-2-thioxothiazolidin-5-yl)-N-(4-methylbenzyl)acetamide] gave a melting point of 174 to 176 °C. Moreover, the viability at 72 h, 100 µM in data set [1] turned out to be 97.7 ± 4.6%. This compound came in with an IC50 at urease of 5.66 ± 0.79 µM.

Usually MIC stands for the lowest concentration that inhibits growth of the organism. The melting point is the temperature, or range, at which the solid turns liquid. By viability is commonly meant the share of living cells, or the viability signal relative to a control. Read a low viability as more harm to the cells. For orientation: IC50 means the midpoint of a concentration-inhibition curve.
